Where two headings read alike, the source gives them in different places.
Assay: 14-day oral gavage toxicokinetic study in rats
Format: in vivo
Conditions: female, rat, plasma, po; for concentration at 1 h / concentration at 2 h / concentration at 4 h / concentration at 8 h / concentration at 12 h / concentration at 24 h / concentration at 0.5 h / concentration at […]: rats; for concentration at […]: Day 14, […]; for half-life: read-out: t½ (converted)
Description: Plasma was obtained from blood samples collected from rats in a composite sampling scheme, with 3 samples collected per sex, per dose, at each target collection time, as illustrated in Table 21 to Table 25. Samples were collected from the vehicle control group on Day 1 and Day 14 at 3 hour after administration. […] Blood samples were collected in tubes containing K3EDTA as an anticoagulant and placed on ice until processed to plasma via centrifugation. Samples were stored frozen at −80° C. until shipment to the bioanalytical laboratory for analysis.
The following parameters were determined:
Cmax: Maximum observed plasma concentration (ng/mL).
A value of 0 ng/mL was assigned to all values below the lower limit of quantitation (BLQ, <10.0 ng/mL).
AUC(0-inf): Area under the plasma concentration vs. time curve extrapolated from 0 to infinity (ng*h/mL), calculated as AUC(0-t)+AUC(t-inf) where AUC(t-inf) is calculated as last measurable concentration (CLast) divided by ke, where ke is the elimination rate constant determined by linear regression of the last three analytically measured points on the log plasma concentration vs. time curve. The selection criteria of the data points for inclusion in the calculation of ke required that at least three data points representing the terminal phase (after Tmax) were regressed and that R2≧0.850 when rounded.
CL: Clearance (L/h/kg), calculated as the dose divided by AUC(0-t).
Vd: Volume of distribution (L/kg), calculated as dose divided by the product of ke and AUC(0-inf).
Vdss: Steady state volume of distribution (L/kg), calculated as clearance […] mean residence time, where mean residence time is calculated as the area under the first moment curve divided by AUC(0-t).
t½: Elimination half-life (h), calculated as ln(2)/ke, where ke is the elimination rate constant determined by linear regression. Half-life was defined as not determined if regression criteria (specified in AUC(0-inf) above) were not met.
Cmax/Dose: Normalized Cmax, calculated as Cmax divided by total dose.
AUC/Dose: Normalized AUC, calculated as AUC(0-t) divided by total dose.
ii. Statistical Analysis Mean and standard deviation (SD) were calculated in Watson. Values of BLQ were assigned a value of 0 ng/mL for mean calculations. Concentration values and derived TK parameters were reported to three significant figures.

[1] = 2 mg/kg, oral 2 mg/kg, Study Day 1, Female
[2] = 2 mg/kg, oral 2 mg/kg, Study Day 14, Female
[3] = 5 mg/kg, oral 5 mg/kg, Study Day 1, Female
[4] = 5 mg/kg, oral 5 mg/kg, Study Day 14, Female

With CN1CCN(c2ccc(Nc3ncc4cc5n(c4n3)C3(CCCCC3)CNC5=O)nc2)CC1 [Compound 1, 2′-((5-(4-methylpiperazin-1-yl)pyridin-2-yl)amino)-7′,8′-dihydro-6′H-spiro[cyclohexane-1,9′-pyrazino[1′,2′:1,5]pyrrolo[2,3-d]pyrimidin]-6′-one] the concentration at 1 h (2 mg/kg, Mean Compound 1 Plasma Concentration, oral 2 mg/kg, Day 1, 1 h, Female) was 91.4 ng/mL, the concentration at 2 h (2 mg/kg, Mean Compound 1 Plasma Concentration, oral 2 mg/kg, Day 1, 2 h, Female) was 196 ng/mL and the concentration at 4 h (2 mg/kg, Mean Compound 1 Plasma Concentration, oral 2 mg/kg, Day 1, 4 h, Female) was 175 ng/mL. For the same compound, the concentration at 8 h (2 mg/kg, Mean Compound 1 Plasma Concentration, oral 2 mg/kg, Day 1, 8 h, Female) was 96.7 ng/mL, the concentration at 12 h (2 mg/kg, Mean Compound 1 Plasma Concentration, oral 2 mg/kg, Day 1, 12 h, Female) was 82.2 ng/mL and the concentration at 24 h (2 mg/kg, Mean Compound 1 Plasma Concentration, oral 2 mg/kg, Day 1, 24 h, Female) was 13 ng/mL. For the same compound, the concentration at 0.5 h (2 mg/kg, Mean Compound 1 Plasma Concentration, oral 2 mg/kg, Day 14, 0.5 h, Female) was 150 ng/mL, the concentration at 1 h (2 mg/kg, Mean Compound 1 Plasma Concentration, oral 2 mg/kg, Day 14, 1 h, Female) was 111 ng/mL and the concentration at 2 h (2 mg/kg, Mean Compound 1 Plasma Concentration, oral 2 mg/kg, Day 14, 2 h, Female) was 212 ng/mL. The concentration at 8 h (2 mg/kg, Mean Compound 1 Plasma Concentration, oral 2 mg/kg, Day 14, 8 h, Female) was 117 ng/mL, the concentration at 12 h (2 mg/kg, Mean Compound 1 Plasma Concentration, oral 2 mg/kg, Day 14, 12 h, Female) was 48.7 ng/mL and the concentration at 24 h (2 mg/kg, Mean Compound 1 Plasma Concentration, oral 2 mg/kg, Day 14, 24 h, Female) was 10.8 ng/mL. The concentration at […] (2 mg/kg, Mean Compound 1 Plasma Concentration, oral 2 mg/kg, Female) was 10 ng/mL, the AUC(0-inf) [1] was 2160 ng·h/mL and the AUC(0-t) [1] was 2060 ng·h/mL. It also gave a Cmax [1] of 196 ng/mL, a Tmax [1] of 2 h and a half-life [1] of 5.25 h. The AUC(0-inf) [2] was 1850 ng·h/mL, the AUC(0-t) [2] was 1770 ng·h/mL and the Cmax [2] was 212 ng/mL. The Tmax [2] was 2 h, the half-life [2] was 4.83 h and the concentration at 0.5 h (5 mg/kg, Individual Compound 1 Plasma Concentration, daily oral 5 mg/kg, Day 1, Female, 0.5 h) was 246 ng/mL. The concentration at 2 h (5 mg/kg, Individual Compound 1 Plasma Concentration, daily oral 5 mg/kg, Day 1, Female, 2 h) was 533 ng/mL, the concentration at 8 h (5 mg/kg, Individual Compound 1 Plasma Concentration, daily oral 5 mg/kg, Day 1, Female, 8 h) was 432 ng/mL and the concentration at 24 h (5 mg/kg, Individual Compound 1 Plasma Concentration, daily oral 5 mg/kg, Day 1, Female, 24 h) was 23.2 ng/mL. For the same compound, the concentration at 1 h (5 mg/kg, Individual Compound 1 Plasma Concentration, daily oral 5 mg/kg, Day 14, Female, 1 h) was 428 ng/mL, the concentration at 4 h (5 mg/kg, Individual Compound 1 Plasma Concentration, daily oral 5 mg/kg, Day 14, Female, 4 h) was 423 ng/mL and the concentration at 8 h (5 mg/kg, Individual Compound 1 Plasma Concentration, daily oral 5 mg/kg, Day 14, Female, 8 h) was 234 ng/mL. The concentration at 12 h (5 mg/kg, Individual Compound 1 Plasma Concentration, daily oral 5 mg/kg, Day 14, Female, 12 h) was 112 ng/mL, the concentration at 24 h (5 mg/kg, Individual Compound 1 Plasma Concentration, daily oral 5 mg/kg, Day 14, Female, 24 h) was 22.2 ng/mL and the concentration at 0.5 h (5 mg/kg, Mean Compound 1 Plasma Concentration, oral 5 mg/kg, Day 1, 0.5 h, Female) was 267 ng/mL. The concentration at 1 h (5 mg/kg, Mean Compound 1 Plasma Concentration, oral 5 mg/kg, Day 1, 1 h, Female) was 406 ng/mL, the concentration at 2 h (5 mg/kg, Mean Compound 1 Plasma Concentration, oral 5 mg/kg, Day 1, 2 h, Female) was 528 ng/mL and the concentration at 4 h (5 mg/kg, Mean Compound 1 Plasma Concentration, oral 5 mg/kg, Day 1, 4 h, Female) was 482 ng/mL. It also gave a concentration at 8 h (5 mg/kg, Mean Compound 1 Plasma Concentration, oral 5 mg/kg, Day 1, 8 h, Female) of 360 ng/mL, a concentration at 12 h (5 mg/kg, Mean Compound 1 Plasma Concentration, oral 5 mg/kg, Day 1, 12 h, Female) of 140 ng/mL and a concentration at 24 h (5 mg/kg, Mean Compound 1 Plasma Concentration, oral 5 mg/kg, Day 1, 24 h, Female) of 18.6 ng/mL. For the same compound, the concentration at 0.5 h (5 mg/kg, Mean Compound 1 Plasma Concentration, oral 5 mg/kg, Day 14, 0.5 h, Female) was 382 ng/mL, the concentration at 1 h (5 mg/kg, Mean Compound 1 Plasma Concentration, oral 5 mg/kg, Day 14, 1 h, Female) was 519 ng/mL and the concentration at 2 h (5 mg/kg, Mean Compound 1 Plasma Concentration, oral 5 mg/kg, Day 14, 2 h, Female) was 493 ng/mL. For the same compound, the concentration at 4 h (5 mg/kg, Mean Compound 1 Plasma Concentration, oral 5 mg/kg, Day 14, 4 h, Female) was 439 ng/mL, the concentration at 8 h (5 mg/kg, Mean Compound 1 Plasma Concentration, oral 5 mg/kg, Day 14, 8 h, Female) was 255 ng/mL and the concentration at 12 h (5 mg/kg, Mean Compound 1 Plasma Concentration, oral 5 mg/kg, Day 14, 12 h, Female) was 105 ng/mL. The concentration at 24 h (5 mg/kg, Mean Compound 1 Plasma Concentration, oral 5 mg/kg, Day 14, 24 h, Female) was 19.2 ng/mL, the concentration at […] (5 mg/kg, Mean Compound 1 Plasma Concentration, oral 5 mg/kg, Female) was 70.7 ng/mL and the AUC(0-inf) [3] was 5440 ng·h/mL. The AUC(0-t) [3] was 5340 ng·h/mL, the Cmax [3] was 528 ng/mL and the Tmax [3] was 2 h. For the same compound, the half-life [3] was 3.82 h, the AUC(0-inf) [4] was 4740 ng·h/mL and the AUC(0-t) [4] was 4620 ng·h/mL. The Cmax [4] was 519 ng/mL.

From US20160220569A1, “CDK4/6 Inhibitor Dosage Formulations For The Protection Of Hematopoietic Stem And Progenitor Cells During Chemotherapy” (G1 Therapeutics, Inc., priority 2015, published 2016)
